Data reported in ChEMBL document CHEMBL1147776, “1-[4-(1H-Benzoimidazol-2-yl)-phenyl]-3-[4-(1H-benzoimidazol-2-yl)-phenyl]-urea derivatives as small molecule heparanase inhibitors” (Bioorg Med Chem Lett, 2006).

Experiments:
Mus musculus = experiment: Inhibition of lung metastasis in C57 mice injected with B16-BL6 melanoma cells at 30 mg/kg, ip; format: functional; conditions: route intraperitoneal
B16 = experiment: Inhibition of proliferation on B16-BL6 melanoma cells at 100 uM; format: functional; conditions: Mus musculus
[1] = Plasma concentration in mice after 1 hour of ip administration; format: ADME, organism-based; conditions: mouse
[2] = Plasma concentration in mice after 4 hours of ip administration; format: ADME, organism-based; conditions: mouse

## O=C(Nc1ccc(-c2nc3ccccc3[nH]2)cc1)Nc1ccc(-c2nc3ccccc3[nH]2)cc1
Mus musculus
  inhibition in vivo at 30 mg/kg: 50%
B16
  inhibition at 100 µM: < 50%
[1]
  concentration at 1 h: 31 µM
[2]
  concentration at 4 h: 23 µM
